Here are results for 7 compounds from BindingDB's records for patent US20250221987 (Acerand Therapeutics (Hong Kong), 2025).

The term IC50 denotes the concentration that gives 50% inhibition.

Assay [1] has as its target Poly [ADP-ribose] polymerase 1 (Homo sapiens, UniProt P09874). Nature of the assay: PARP1 Enzymatic Activity Assay. The method, then:
2) After the coating was completed, the coating buffer was discarded. […] After washing, the blocking buffer was discarded. […] 4) 1000× compound was prepared. 1 μL of compound was transferred to a 96-well plate containing 199 μL of reaction buffer (50 mM Tris-HCl (pH 7.5), 0.005% Tween-20, 0.01% BSA) and mixed well. […] 5) 25/10×PARP1-DNA solution was prepared with reaction buffer. […] 6) 25/10×NAD+ solution was prepared with reaction buffer. […] 8) Primary antibody was 2000-fold diluted with the blocking buffer. 20 μL of primary antibody was added to the reaction plate, which was incubated at room temperature for 1.5 hours. 9) The primary antibody was discarded. […] 10) Secondary antibody was 2000-fold diluted with the blocking buffer. […] 11) The secondary antibody was discarded. […] The chemiluminescence value RLU was read with Envision.

Assay [2] deals with Poly [ADP-ribose] polymerase 2 (Homo sapiens, UniProt Q9UGN5). The experiment in a line: PARP2 Enzymatic Activity Assay. The procedure:
2) After the coating was completed, the coating buffer was discarded. […] 6) 2000× compound was prepared. […] 10) The Stre-HRP solution was discarded.

Chain of Poly [ADP-ribose] polymerase 1 (P09874 whole entry): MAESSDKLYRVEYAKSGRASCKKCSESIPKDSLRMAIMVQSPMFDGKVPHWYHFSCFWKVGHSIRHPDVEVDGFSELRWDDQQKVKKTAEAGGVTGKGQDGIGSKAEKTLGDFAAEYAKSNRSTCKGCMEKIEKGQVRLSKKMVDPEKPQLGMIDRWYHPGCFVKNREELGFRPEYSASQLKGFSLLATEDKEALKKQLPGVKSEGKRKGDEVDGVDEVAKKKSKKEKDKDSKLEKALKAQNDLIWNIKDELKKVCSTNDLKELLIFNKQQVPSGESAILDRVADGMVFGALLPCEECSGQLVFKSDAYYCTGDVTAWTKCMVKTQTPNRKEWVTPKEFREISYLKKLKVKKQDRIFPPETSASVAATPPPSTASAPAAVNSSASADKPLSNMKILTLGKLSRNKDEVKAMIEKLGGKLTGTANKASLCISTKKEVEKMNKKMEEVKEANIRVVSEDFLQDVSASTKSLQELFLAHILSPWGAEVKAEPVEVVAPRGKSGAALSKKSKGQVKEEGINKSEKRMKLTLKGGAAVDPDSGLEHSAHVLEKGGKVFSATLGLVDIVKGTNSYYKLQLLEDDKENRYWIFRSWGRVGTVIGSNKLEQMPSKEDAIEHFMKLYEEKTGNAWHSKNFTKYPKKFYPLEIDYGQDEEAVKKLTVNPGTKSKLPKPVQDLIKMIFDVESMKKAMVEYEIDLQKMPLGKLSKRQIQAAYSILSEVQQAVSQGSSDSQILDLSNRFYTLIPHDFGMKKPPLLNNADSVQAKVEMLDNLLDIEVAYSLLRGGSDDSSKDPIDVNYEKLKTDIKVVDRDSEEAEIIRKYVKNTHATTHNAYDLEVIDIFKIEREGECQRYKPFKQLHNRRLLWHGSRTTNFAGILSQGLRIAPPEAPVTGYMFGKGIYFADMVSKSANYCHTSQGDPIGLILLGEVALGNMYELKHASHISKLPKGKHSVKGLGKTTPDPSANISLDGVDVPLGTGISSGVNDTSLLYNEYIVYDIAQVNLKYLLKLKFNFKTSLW
Chain of Poly [ADP-ribose] polymerase 2 (Q9UGN5 whole entry): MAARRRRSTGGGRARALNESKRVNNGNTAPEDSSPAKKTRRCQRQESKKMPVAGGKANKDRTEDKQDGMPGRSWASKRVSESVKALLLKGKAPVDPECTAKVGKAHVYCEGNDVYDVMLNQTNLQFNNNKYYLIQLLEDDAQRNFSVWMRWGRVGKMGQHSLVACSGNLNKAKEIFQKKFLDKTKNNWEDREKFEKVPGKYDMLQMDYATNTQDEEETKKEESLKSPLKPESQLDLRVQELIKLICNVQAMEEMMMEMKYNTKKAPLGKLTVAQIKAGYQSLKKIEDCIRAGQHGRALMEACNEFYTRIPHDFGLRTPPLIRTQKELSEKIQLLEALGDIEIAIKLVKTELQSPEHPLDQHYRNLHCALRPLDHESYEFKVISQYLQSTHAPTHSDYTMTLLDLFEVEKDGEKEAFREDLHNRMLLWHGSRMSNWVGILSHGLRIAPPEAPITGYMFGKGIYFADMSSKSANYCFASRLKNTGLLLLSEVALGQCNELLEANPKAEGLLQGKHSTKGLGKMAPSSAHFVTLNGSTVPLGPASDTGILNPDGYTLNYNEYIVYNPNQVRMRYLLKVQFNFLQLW

In turn, `CCc1cc2ncc(CN3CCN(c4ccc(C(=O)NC)nc4)[C@@H]4C[C@@H]43)cc2[nH]c1=O` [US20250221987, Example 1-2] had a 50% inhibitory concentration (IC50) in assay [1] of 0.7 nM. The same measure, in the same setting: with `CCc1cc2ncc(CN3CCN(c4ccc(C(=O)NC)nc4)C4CC43)cc2[nH]c1=O` (stereo unspecified) [US20250221987, Example 1] the figure was 1.1 nM. For `CCc1cc2ncc(CN3CCN(c4ccc(C(=O)NC)nc4)[C@@H]4CC[C@H]43)cc2[nH]c1=O` [US20250221987, Example 2-3], the values for the IC50 in assay [1] and in assay [2] were 1.5 nM and 72 nM, respectively. The like results for `CNC(=O)c1ccc(N2CCN(Cc3cnc4cc(OC)c(=O)[nH]c4c3)[C@H]3CC[C@H]32)cn1` [US20250221987, Example 33-1] were, in that order, 6.6 nM and over 300 nM. On to `CCc1cc2ncc(CN3CCN(c4ccc(C(=O)NC)nc4)[C@H]4CC[C@@H]43)cc2[nH]c1=O` [US20250221987, Example 2-4], for which the concentration for half-maximal inhibition (IC50) in assay [1] was 1 nM; in assay [2], 40 nM.

As for `CCc1cc2ncc(CN3CCN(c4ccc(C(=O)NC)nc4)[C@H]4C[C@H]43)cc2[nH]c1=O` [US20250221987, Example 1-1], the IC50 in assay [1] was determined as 0.9 nM.

Take `CCc1cc2ncc(CN3CCN(c4ccc(C(=O)NC)nc4)C4CCC43)cc2[nH]c1=O` (stereo unspecified) [US20250221987, Example 2]: the figures for the IC50 in assay [1] and in assay [2] were 0.9 nM and 14 nM, respectively.
